Assay results reported in patent US6221865A, “Inhibitors of protein isoprenyl transferases” (priority 1998, dated 2001).
Where a name gives a salt, the structure may show the parent alone.

What follows are molecules tested against T1, protein farnesyltransferase (Rattus norvegicus, UniProt Q02293+Q04631) (assay: Inhibition of farnesyltransferase (scintillation proximity assay, rat brain enzyme, biotin-K Ras B fragment substrate)). Conditions: 1 × 10^-5 M (Table 1).
T1 construct: The enzyme is purified according to Reiss, Y., et al., Cell, 62: 81-88 (1990), utilizing steps one through three; from tissue; host or cells: rat brain
T1 sequence (Q02293 whole entry, the tested form may be a part, one chain of several): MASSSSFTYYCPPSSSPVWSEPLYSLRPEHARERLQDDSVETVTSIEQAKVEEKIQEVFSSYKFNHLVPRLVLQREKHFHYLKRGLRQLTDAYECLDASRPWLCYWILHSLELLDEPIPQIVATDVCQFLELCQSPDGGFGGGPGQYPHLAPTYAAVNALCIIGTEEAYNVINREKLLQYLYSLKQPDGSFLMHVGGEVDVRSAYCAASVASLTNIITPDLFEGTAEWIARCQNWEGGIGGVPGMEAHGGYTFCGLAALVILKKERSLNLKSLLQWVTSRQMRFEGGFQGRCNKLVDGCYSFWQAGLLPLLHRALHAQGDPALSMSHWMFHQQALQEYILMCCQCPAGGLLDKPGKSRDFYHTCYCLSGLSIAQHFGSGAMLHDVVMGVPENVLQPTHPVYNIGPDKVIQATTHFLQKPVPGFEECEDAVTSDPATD
Type: biochemical
Summary of the method: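 Enzyme from rat brain, partly purified (steps one to three), assayed by SPA kit using 0.1 mM final biotin-K Ras B peptide as prenyl acceptor rather than biotin-lamin. Activity given as percent inhibition.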

Row | Structure (SMILES) | % inhibition of farnesyltransferase at 1 × 10^-5 M
1 | CSCC[C@H](NC(=O)c1ccc(CNc2cccc(CO)c2)cc1-c1ccccc1)C(=O)O [Example 680] | 58%
2 | CSCC[C@H](NC(=O)c1ccc(CNCCCN2CCOCC2)cc1-c1ccccc1)C(=O)O [Example 377] | 71%
3 | CSCC[C@H](NC(=O)c1ccc(CNc2ccc(I)cc2)cc1-c1ccccc1)C(=O)O [Example 688] | 71%
4 | CSCC[C@H](NC(=O)c1ccc(CNc2nnc(C)s2)cc1-c1ccccc1)C(=O)O [Example 371] | 66%

Same assay, conditions: 1 × 10^-6 M (Table 2)

Row | Structure (SMILES) | % inhibition of farnesyltransferase at 1 × 10^-6 M
5 | CSCCC(NC(=O)c1ccc(NC(=O)Cc2cscn2)cc1-c1ccccc1)C(=O)O (centres unmarked) [Example 162] | 12%
6 | CSCC[C@H](NC(=O)c1ccc(Sc2ccc3ccccc3c2)cc1-c1ccccc1C)C(=O)O [Example 497] | 94%
7 | CSCC[C@H](NC(=O)c1ccc(NC(=O)OCc2cncs2)cc1-c1ccccc1C)C(=O)O [Example 902] | 85%
8 | CSCC[C@H](NC(=O)c1ccc(CN(CCc2ccccc2)c2ccccc2)cc1-c1ccccc1C)C(=O)O [Example 507] | 96%
9 | CSCC[C@H](NC(=O)c1ccc(CN(CCc2ccccc2)Cc2ccccc2)cc1-c1ccccc1C)C(=O)O [Example 513] | 96%
10 | CSCC[C@H](NC(=O)c1ccc(CNCCS)cc1-c1ccccc1)C(=O)O [Example 626] | 61%
11 | CSCC[C@H](NC(=O)c1ccc(CN(C(CC2CCCCC2)CC2CCCCC2)S(=O)(=O)c2ccccc2)cc1-c1ccccc1C)C(=O)O [Example 911] | 65%
12 | CSCC[C@H](NC(=O)c1ccc(CSCc2ccc(C)cc2)cc1-c1ccccc1C)C(=O)[O-].[Li+] [Example 556] | 99%
13 | CSCC[C@H](NC(=O)c1ccc(COCCc2ccccc2)cc1-c1ccccc1C)C(=O)[O-].[Li+] [Example 587] | 97%
14 | CSCC[C@H](NC(=O)c1ccc(CN(C)C(C)(C)Cc2ccccc2)cc1-c1ccccc1C)C(=O)O [Example 982] | 64%
15 | CSCC[C@H](NC(=O)c1ccc(COCc2ccccc2)cc1-c1ccccc1C)C(=O)NS(=O)(=O)c1ccc(C)cc1 [Example 582] | 99%
16 | CSCC[C@H](NC(=O)c1ccc(CNc2ccc(CCO)cc2)cc1-c1ccccc1)C(=O)O [Example 694] | 45%
17 | CCSC[C@H](CC1CCCCC1)NCc1ccc(C(=O)N[C@@H](CCSC)C(=O)OCOC(=O)C(C)(C)C)c(-c2ccccc2C)c1 [Example 764] | 88%
18 | CSCC[C@H](NC(=O)c1ccc(CNc2cccc(C(N)=O)c2)cc1-c1ccccc1)C(=O)O [Example 682] | 31%
19 | CSCC[C@H](NC(=O)c1ccc(CN(CC(c2ccccc2)c2ccccc2)c2ccccc2)cc1-c1ccccc1C)C(=O)O [Example 509] | 77%

Same assay, conditions: 1 × 10^-7 M (Table 3)

Row | Structure (SMILES) | % inhibition of farnesyltransferase at 1 × 10^-7 M
20 | CSCC[C@H](NC(=O)c1ccc(CSc2ccc3ccccc3c2)cc1-c1ccccc1C)C(=O)O [Example 551] | 93%
21 | CSCC[C@H](NC(=O)c1ccc(CN(Cc2ccccc2)c2ccccc2[N+](=O)[O-])cc1-c1ccccc1C)C(=O)[O-].[Li+] [Example 849] | 66%
22 | CSCC[C@H](NC(=O)c1ccc(CN[C@@H](CO)CC2CCCCC2)cc1-c1ccccc1C)C(=O)O [Example 618] | 89%
23 | CSCC[C@H](NC(=O)c1ccc(CSc2nc3cc(C)ccc3[nH]2)cc1-c1ccccc1C)C(=O)O [Example 733] | 60%
24 | CSCC[C@H](NC(=O)c1ccc(COc2ccc3ccccc3c2)cc1-c1ccccc1C)C(=O)O [Example 573] | 72%
25 | CSCC[C@H](NC(=O)c1ccc(COCc2ccc(-c3ccc(Cl)cc3)o2)cc1-c1ccccc1C)C(=O)NS(C)(=O)=O [Example 818] | 78%
26 | CSCC[C@H](NC(=O)c1ccc(COCc2ccc(Br)o2)cc1-c1ccccc1C)C(=O)[O-].[Li+] [Example 434] | 93%
27 | CSCC[C@H](NC(=O)c1ccc(CNC(Cc2ccccc2)Cc2ccccc2)cc1-c1ccccc1C)C(=O)O [Example 523] | 97%
28 | CSCC[C@H](NC(=O)c1ccc(COCC2CCCCC2)cc1-c1ccccc1C)C(=O)[O-].[Li+] [Example 585] | 96%
29 | CSCC[C@H](NC(=O)c1ccc(CSc2ncnc3[nH]ncc23)cc1-c1ccccc1C)C(=O)O [Example 746] | 84%
30 | COc1ccccc1COCc1ccc(C(=O)N[C@@H](CCSC)C(=O)[O-])c(-c2ccccc2C)c1.[Li+] [Example 931] | 98%
31 | CCSC[C@H](CC1CCCCC1)N(Cc1ccc(C(=O)N[C@@H](CCSC)C(=O)O)c(-c2ccccc2C)c1)C(C)=O [Example 947] | 79%

Same assay, conditions: 1 × 10^-8 M (Table 4)

Row | Structure (SMILES) | % inhibition of farnesyltransferase at 1 × 10^-8 M
32 | CSCC[C@H](NC(=O)c1ccc(CN[C@@H](CC2CCCCC2)C(=O)N2CCCCC2)cc1-c1ccccc1C)C(=O)O [Example 887] | 92%
33 | CSCC[C@H](NC(=O)c1ccc(CN(C(C)=O)C(CC2CCCCC2)CC2CCCCC2)cc1-c1ccccc1C)C(=O)O [Example 909] | 79%
34 | CSCC[C@H](NC(=O)c1ccc(CN(c2ccccc2)S(=O)(=O)c2ccc(C(F)(F)F)cc2)cc1-c1ccccc1C)C(=O)O [Example 780] | 71%
35 | CSCC[C@H](NC(=O)c1ccc(CN(CCc2ccccc2)c2cncnc2)cc1-c1ccccc1C)C(=O)O [Example 518] | 90%
36 | CSCC[C@H](NC(=O)c1ccc(CO[C@H](CSc2ccccc2)CC2CCCCC2)cc1-c1ccccc1C)C(=O)O [Example 884] | 94%
37 | CSCC[C@H](NC(=O)c1ccc(CN(Cc2ccccc2)c2ccc(Cl)cc2)cc1-c1ccccc1C)C(=O)O [Example 848] | 87%
38 | CSCC[C@H](NC(=O)c1ccc(CN(Cc2ccc3c(c2)OCO3)c2cncnc2)cc1-c1ccccc1C)C(=O)O [Example 837] | 91%
39 | CSCC[C@H](NC(=O)c1ccc(COCc2oc(-c3ccc(Cl)cc3)c(Cl)c2Cl)cc1-c1ccccc1C)C(=O)[O-].[Li+] [Example 829] | 92%
40 | CSCC[C@H](NC(=O)c1ccc(COCc2ccc(-c3ccc(Cl)cc3)o2)cc1-c1ccccc1C)C(=O)NS(=O)(=O)c1ccccc1 [Example 819] | 76%
41 | CSCC[C@H](NC(=O)c1ccc(COCc2ccc(-c3ccc(N(C)C)cc3)o2)cc1-c1ccccc1C)C(=O)O [Example 821] | 75%
42 | CSCC[C@H](NC(=O)c1ccc(COCc2cnc(-c3cccc(F)c3)s2)cc1-c1ccccc1C)C(=O)[O-].[Li+] [Example 898] | 82%
43 | CCSC[C@H](CC(C)C)NCc1ccc(C(=O)N[C@@H](CCSC)C(=O)O)c(-c2ccccc2C)c1 [Example 905] | 86%

Same assay, conditions: Table 6, ** = 0.01 μM (footnote); title prints 0.01 mM

Row | Structure (SMILES) | % inhibition at 0.01 μM (**)
44 | CCSCC(CC1CCCCC1)NCc1cc(-c2ccccc2C)c(C(=O)N[C@@H](CCSC)C(=O)O)cc1F (some centres unmarked) [Example 1134] | 95%

Same assay, conditions: read-out: % inhibition at 0.01 μM (**); Table 6, ** = 0.01 μM (footnote); title prints 0.01 mM

Row | Structure (SMILES) | inhibition at 0.01 µM
45 | CSCC[C@H](NC(=O)c1ccc(CC(CCC2CCCCC2)S(=O)(=O)c2ccccc2)cc1-c1ccccc1C)C(=O)O (some centres unmarked) [Example 1302, N-[4-(4-Cyclohexyl-2-phenylsulfonylbut-1-yl)-2-(2-methylphenyl)benzoyl]methionine Lithium Salt] | 93%

Same assay, conditions: read-out: % inhibition at 0.1 μM (*); Table 6, * = 0.1 μM (footnote); title prints 0.1 mM

Row | Structure (SMILES) | inhibition at 0.1 µM
46 | COCC1CCC(Cc2ccccc2)N1Cc1ccc(C(=O)N[C@@H](CCSC)C(=O)O)c(-c2ccccc2C)c1 (some centres unmarked) [Example 1118, N-[4-(2-methoxymethyl-5-benzylpyrrolidin-1-ylmethyl)-2-(2-methylphenyl)benzoyl]methionine] | 86%

Same assay, conditions: read-out: % inhibition of farnesyltransferase at 1 × 10^-6 M; 1 × 10^-6 M (Table 2)

Row | Structure (SMILES) | inhibition at 1 µM
47 | CSCC[C@H](NC(=O)c1ccc(CCc2ccccc2-c2ccccc2)cc1-c1ccccc1C)C(=O)O [Example 452, N-[4-(2-(2-phenylphenyl)ethyl)-2-(2-methylphenyl)benzoyl]methionine lithium salt] | 96%
48 | CSCC[C@H](NC(=O)c1ccc(CN(C)C(CC2CCCCC2)C(=O)N2CCCCC2)cc1-c1ccccc1C)C(=O)O (some centres unmarked) [Example 301] | 98%
49 | CSCC[C@H](NC(=O)c1ccc(N2CC(=O)NNC2=O)cc1-c1ccccc1)C(=O)O [Example 224] | 41%
50 | Cc1ccccc1-c1cc(CN(C2CC2)C(C)(C)CC2CCCCC2)ccc1C(=O)N[C@@H](CCS(C)(=O)=O)C(=O)O [Example 320] | 93%

Same assay, conditions: read-out: % inhibition of farnesyltransferase at 1 × 10^-7 M; 1 × 10^-7 M (Table 3)

Row | Structure (SMILES) | inhibition at 0.1 µM
51 | CSCC[C@H](NC(=O)c1ccc(C=Cc2cncs2)cc1-c1ccccc1C)C(=O)O [Example 785, N-[4-(2-(thiazol-5-yl)ethen-1-yl)-2-(2-methylphenyl)benzoyl]methionine lithium salt] | 96%
52 | CSCC[C@H](NC(=O)c1ccc(/C=C/c2ccc(Oc3ccccc3Cl)cc2)cc1-c1ccccc1C)C(=O)O [Example 854, N-[4-(2-(4-(2-chlorophenoxy)phenyl)ethen-1-yl)-2-(2-methylphenyl)benzovyl]methionine] | 78%
53 | CSCC[C@H](NC(=O)c1ccc(CCc2ccc(C3CCCCC3)cc2)cc1-c1ccccc1C)C(=O)O [Example 461, N-[4-(2-(4-cyclohexylphenyl)ethyl)-2-(2-methylphenyl)benzoyl]methionine lithium salt] | 93%
